These results are taken from patent US11274103B2, “Compounds for the modulation of MYC activity” (Syros Pharmaceuticals, Inc., priority 2016, dated 2022).

Where a name gives a salt, the structure may show the parent alone. Bounds are passed on as bounds.

As a reminder, the IC50 is the concentration needed to halve the response being measured.

T1 sequence (P01106 whole entry): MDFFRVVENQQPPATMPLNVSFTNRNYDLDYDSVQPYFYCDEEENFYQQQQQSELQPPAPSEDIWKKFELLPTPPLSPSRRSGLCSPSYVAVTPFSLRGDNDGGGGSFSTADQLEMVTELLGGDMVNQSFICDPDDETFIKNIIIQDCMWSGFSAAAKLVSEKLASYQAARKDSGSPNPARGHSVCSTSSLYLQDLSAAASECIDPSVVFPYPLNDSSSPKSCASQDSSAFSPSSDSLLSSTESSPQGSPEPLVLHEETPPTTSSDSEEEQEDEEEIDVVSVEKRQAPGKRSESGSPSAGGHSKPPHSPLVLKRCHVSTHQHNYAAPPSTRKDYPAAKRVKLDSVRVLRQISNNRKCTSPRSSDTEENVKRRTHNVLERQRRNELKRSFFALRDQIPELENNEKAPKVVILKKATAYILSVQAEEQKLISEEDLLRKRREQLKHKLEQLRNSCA

This experiment has as its target T1, c-Myc/Max/Ebox DNA (Homo sapiens, UniProt P01106).
T1 construct: his6 (cleaved yes)
In words: c-Myc/Max/Ebox DNA AlphaScreen Assay. The class given is binding. The conditions noted are these: calculated IC50; free c-Myc 20 nM, his6-Max 5 nM, biotinylated Ebox oligo 10 nM; 2 hour incubation. As to the method: Compounds of the invention were assayed for c-Myc/Max/EBox activity as described in the following protocol. Human his6-c-Myc and his6-Max were used with biotinylated DNA containing a single Ebox sequence (biotin[…] (SEQ ID NO: 1)) purchased from MWG Operon. Free c-Myc was generated from his6-c-Myc through thrombin cleavage of the his6 tag (SEQ ID NO: 2). For 384-well plate assays, 10 μL of a 2× solution of free c-Myc (20 nM final), Ni^2+ coated Acceptor Beads (25 μg/ml final), and biotinylated Ebox oligo (10 nM final) were added to 384-well plates with a Biotek EL406 liquid handler. 50 nL of compounds from stock plates were added by pin transfer using a Janus Workstation (PerkinElmer), allowing the compounds to interact with c-Myc prior to c-Myc binding with Max. In the current assay, DMSO was not allowed to exceed 2% v/v of the assay. 10 μl of 2× master mix containing streptavidin-coated donor beads (25 μg/ml final) and his6-Max (5 nM) were added. AlphaScreen measurements were performed on an Envision plate reader (PerkinElmer) utilizing the manufacturer's protocol.
Both master mixes were made in room temperature assay buffer (50 mM HEPES, 150 mM NaCl, 0.2% w/v BSA, 0.02% w/v Tween20, 40 μg/ml glycogen, 500 μM DTT, pH 8.0, wherein both DTT and glycogen were added fresh). Alpha beads were added to respective master solutions. All subsequent steps were performed in low light conditions. Solution 1: 2× solution of components with final concentrations of c-Myc Ni-coated Acceptor Beads (25 μg/ml), and biotinylated Ebox oligo (10 nM). Solution 2: 2× solution of streptavidin-coated donor beads (25 μg/ml final) and his6-Max 10 μL. Solution 1 was added to 384-well plate (AlphaPlate-384, PerkinElmer) with Biotek EL406 liquid handler and the plates were centrifuged very briefly. 50 nL of compounds from stock plates were added by pin transfer using a Janus Workstation. Solution 2 (10 μL) was added with the liquid handler. Plates were sealed with foil to block light exposure and prevent evaporation. Plates were very briefly centrifuged followed by 2 hour incubation. AlphaScreen measurements were performed on an Envision 2104 utilizing the manufacturer's protocol. Excitation was at 680 nm for donor bead release of singlet oxygen and emission was read with a bandpass filter from 520-620 nm. Glycogen: Roche Diagnostics #10901393001. Plate 1536: Perkin Elmer, 6004350. Plate 384: Perkin Elmer, 6005350. Nickel-His Alpha Beads: 6760619R. The data from this assay are summarized in Table 2 below (Myc/Max/DNA Activity), where “A” represents a calculated IC50 of less than 500 nM; “B” represents a calculated IC50 of between 500 nM and 5 μM; “C” represents a calculated IC50 of between 5 μM and 10 μM; “D” represents a value of greater than 10 μM, and “NT” represents a compound for which an assay result was not obtained.
Consider `CC(=O)Nc1sc2c(c1-c1nc(-c3ccccc3)cs1)CCNC2` [Compound 100, N-(3-(4-phenylthiazol-2-yl)-4,5,6,7-tetrahydrothieno[2,3-c]pyridin-2-yl)acetamide], for which the IC50 was more than 10000 nM.

With `CC(C)NCCC(=O)Nc1sc2c(c1-c1nc(C(=O)O)cs1)CCNC2` [Compound 101, 2-(2-(3-(isopropylamino)propanamido)-4,5,6,7-tetrahydrothieno[2,3-c]pyridin-3-yl)thiazole-4-carboxylic acid], the IC50 was 500 to 5000 nM.

As for `CC(C)NCCC(=O)Nc1sc2c(c1-c1nc(-c3cccnc3)cs1)CCNC2` [Compound 103], the half-inhibitory concentration (IC50) was less than 500 nM.

In the case of `CC(C)NCCC(=O)Nc1sc2c(c1-c1nc(-c3ccccn3)cs1)CCNC2` [Compound 104, 3-(Isopropylamino)-N-(3-(4-(pyridin-2-yl)thiazol-2-yl)-4,5,6,7-tetrahydrothieno[2,3-c]pyridin-2-yl)propanamide], the IC50 is less than 500 nM.

Take `COCCNCCC(=O)Nc1sc2c(c1-c1nc(-c3ccccn3)cs1)CCNC2` [Compound 110]: the IC50 was 500 to 5000 nM.

As to `CC(C)NCCC(=O)Nc1sc2c(c1-c1nc(C(=O)Nc3ccccc3)cs1)CCNC2` [Compound 113, 2-(2-(3-(isopropylamino)propanamido)-4,5,6,7-tetrahydrothieno[2,3-c]pyridin-3-yl)-N-phenylthiazole-4-carboxamide], the IC50 was more than 10000 nM.

As for `CC(C)NCCC(=O)Nc1sc2c(c1-c1nc(-c3cnn(C)c3)cs1)CCNC2` [Compound 114], the IC50 was less than 500 nM.

In the case of `CC(C)NCCC(=O)Nc1sc2c(c1-c1nc(-c3cncc(F)c3)cs1)CCNC2` [Compound 115], the IC50 was less than 500 nM.

In the case of `Cc1cn(-c2csc(-c3c(NC(=O)CCNC(C)C)sc4c3CCNC4)n2)cn1` [Compound 117], the IC50 is 500 to 5000 nM.

Take `COc1cncc(-c2csc(-c3c(NC(=O)CCNC(C)C)sc4c3CCNC4)n2)c1` [Compound 119]: the IC50 is less than 500 nM.

As to `Cc1cncc(-c2csc(-c3c(NC(=O)CCNC(C)C)sc4c3CCNC4)n2)c1` [Compound 122], the IC50 was less than 500 nM.

`Cc1ccncc1-c1csc(-c2c(NC(=O)CCNC(C)C)sc3c2CCNC3)n1` [Compound 123]: the IC50 is 500 to 5000 nM.

For the molecule `CC(C)NCCC(=O)Nc1sc2c(c1-c1nc(C(=O)Nc3cccnc3)cs1)CCNC2` [Compound 124, 2-(2-(3-(Isopropylamino)propanamido)-4,5,6,7-tetrahydrothieno[2,3-c]pyridin-3-yl)-N-(pyridin-3-yl)thiazole-4-carboxamide], the IC50 was less than 500 nM.

As to `CC(C)NCCC(=O)Nc1sc2c(c1-c1nc(C3=CCNCC3)cs1)CCNC2` [Compound 126], the IC50 is less than 500 nM.

As for `COc1ncccc1-c1csc(-c2c(NC(=O)CCNC(C)C)sc3c2CCNC3)n1` [Compound 127], the IC50 is less than 500 nM.

As to `CC(C)NCCC(=O)Nc1sc2c(c1-c1nc(-c3cncnc3)cs1)CCNC2` [Compound 128], the IC50 is less than 500 nM.

Consider `CC(C)NCCC(=O)Nc1sc2c(c1-c1nc(-c3ccc[nH]c3=O)cs1)CCNC2` [Compound 129], for which the IC50 is less than 500 nM.

For `CC(C)NCCC(=O)Nc1sc2c(c1-c1nc(C3=CCOCC3)cs1)CCNC2` [Compound 130, N-(3-(4-(3,6-Dihydro-2H-pyran-4-yl)thiazol-2-yl)-4,5,6,7-tetrahydrothieno[2,3-c]pyridin-2-yl)-3-(isopropylamino)propanamide dihydrochloride], the IC50 was 500 to 5000 nM.
